Laboratory results: patent US4808587A, “5-substituted pyrido[2,3-d]pyrimidine-2,4-diones” (Nippon Zoki Pharmaceutical Co., Ltd., priority 1986, dated 1989)

Assays:
[1] = tested on: PCA (Passive Cutaneous Anaphylaxis) reaction; experiment: Anti-allergic effect: PCA (Passive Cutaneous Anaphylaxis) reaction in rats; format: in vivo, Wister-strain male rats; conditions: Rattus norvegicus, oral, 1 hour before antigen challenge, dye leakage at 620 nm
Experimental: PCA (Passive Cutaneous Anaphylaxis) reaction in rats was taken as an index to an anti-allergic effect of the compound of the present invention.
In order to perform sensitization, anti-DNP-Asc (dinitrophenylated Ascaris extracts) serum diluted with saline was injected intradermally at 4 sites on the shaved back of groups of 6 Wister-strain male rats (6 weeks of age). 1 hour after oral administration of the test drug, the mixture of equivalent amount of DNP-Asc (5 mg/ml) and 2% Evans blue were intravenously injected to generate PCA reaction. 30 minutes thereafter, rats were killed by decapitation and exsanguinated. The skin was opened in order to evaluate the leakage of blue dye. The obtained skin was dissolved in 2N potassium hydroxide, then 2N phosphoric acid and acetone were added thereto. The amount of dye was determined by measurement of absorbance at 620 nm after centrifugation.

[2] = Acute toxicity test (oral, LD50); conditions: mouse, in vivo
Experimental: The test compounds were orally administered to groups of 5 ICR-strain male mice. LD50 value of the compound of the present invention was calculated by the LitchfieldWilcoxon's method based on mortality for 14 days after drug administration.

Row | SMILES | inhibition in vivo at 20 mg/kg [1] | LD50 at 336 h [2]
1 | Cn1c(=O)c2cc(N)cnc2n(C)c1=O [Compound 17, 6-amino-1,3-dimethylpyrido[2,3-d]pyrimidine-2,4-dione] | 56.2% | 
2 | Cn1c(=O)c2cccnc2n(C)c1=O [Compound 2, 1,3-dimethylpyrido[2,3-d]pyrimidine-2,4-dione] | 51.2% | 
3 | Cn1c(=O)c2c(O)ccnc2n(C)c1=O [Compound 14, 5-hydroxy1,3-dimethylpyrido[2,3-d]pyrimidine-2,4-dione] | 49.9% | 
4 | CC(C)Nc1ccnc2c1c(=O)n(C)c(=O)n2C [Compound 10, 5-isopropylamino-1,3-dimethylpyrido[2,3-d]pyrimidine-2,4-dione] | 86.6% | 850 mg/kg
5 | C=CCNc1ccnc2c1c(=O)n(C)c(=O)n2C [Compound 9, 5-allylamino-1,3-dimethylpyrido[2,3-d]pyrimidine-2,4-dione] | 67.9% | > 1000 mg/kg
6 | Cn1c(=O)c2c(N)ccnc2n(C)c1=O [Compound 4, 5-amino-1,3-dimethylpyrido[2,3-d]pyrimidine-2,4-dione] | 68.7% | 850 mg/kg
7 | CCn1c(=O)c2c(NC)ccnc2n(CC)c1=O [Compound 8, 5-methylamino-1,3-diethylpyrido[2,3-d]pyrimidine-2,4-dione] | 76.4% | 
8 | Cn1c(=O)c2[nH]cnc2n(C)c1=O [Theophylline, reference compound] | 57.9% | 
9 | CCn1c(=O)c2c(N)ccnc2n(CC)c1=O [Compound 5, 5-amino-1,3-diethylpyrido[2,3-d]pyrimidine-2,4-dione] | 79.2% | > 1000 mg/kg
10 | Cn1c(=O)c2c(NO)ccnc2n(C)c1=O [Compound 11, 5-hydroxyamino-1,3-dimethylpyrido[2,3-d]pyrimidine-2,4-dione] | 74% | > 1000 mg/kg
11 | CNc1ccnc2c1c(=O)n(C)c(=O)n2C [Compound 7, 5-methylamino-1,3-dimethylpyrido[2,3-d]pyrimidine-2,4-dione] | 73.7% | 1050 mg/kg
12 | Cn1c(=O)c2ccc(N)nc2n(C)c1=O [Compound 15, 7-amino-1,3-dimethylpyrido[2,3-d]pyrimidine-2,4-dione] | 68.7% | > 1200 mg/kg
